Laboratory results reported in patent publication US12692238B2, “Substituted pyridazinone herbicides” (FMC CORPORATION, priority 2020, dated 2026).

Experiments:
Type in all cases: in vivo
[1] = tested on: blackgrass (Alopecurus myosuroides); experiment: Test A postemergence, blackgrass; settings: 10 days
Summary of the method: (§1)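 Test chemicals, formulated in a non-phytotoxic solvent mixture with surfactant, are applied either as a directed preemergence soil spray or postemergence to seedlings at the one- to two-leaf stage. Injury is scored visually after 10 days, 0 = no effect to 100 = complete control.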

kochia (Bassia scoparia) [2] = experiment: Test A preemergence, kochia; settings: 0 to 100 scale, 10 days
Summary of the method: as §1

[3] = tested on: goosegrass (Eleusine indica); experiment: Test A postemergence, goosegrass; settings: 10 days
Description: (§2) Seeds of plant species selected from barnyardgrass (Echinochloa crus-galli), blackgrass (Alopecurus myosuroides), corn (Zea mays), foxtail, giant (giant foxtail, Setaria faberi), foxtail, green (green foxtail, Setaria viridis), goosegrass (Eleusine indica), kochia (Bassia scoparia), oat, wild (wild oat, Avena fatua), palmer amaranth (pigweed, palmer, Amaranthus palmeri), redroot pigweed (Amaranthus retroflexus), ragweed (common ragweed, Ambrosia artemisiifolia), ryegrass, Italian (Italian ryegrass, Lolium multiflorum), and soybean (Glycine max) were planted into a blend of loam soil and sand and treated preemergence with a directed soil spray using test chemicals formulated in a non-phytotoxic solvent mixture which included a surfactant.
(§3) At the same time, plants selected from these crop and weed species and also wheat (Triticum aestivum), galium (catchweed bedstraw, Galium aparine) and horseweed (Erigeron canadensis) were planted in pots containing the same blend of loam soil and sand and treated with postemergence applications of test chemicals formulated in the same manner. Plants ranged in height from 2 to 10 cm and were in the one- to two-leaf stage for the postemergence treatment. Treated plants and untreated controls were maintained in a greenhouse for 10 days, after which time all treated plants were compared to untreated controls and visually evaluated for injury. Plant response ratings, summarized in Table A, are based on a 0 to 100 scale where 0 is no effect and 100 is complete control. A dash (-) response means no test result.

[4] = tested on: oat, wild (wild oat, Avena fatua); experiment: Test A postemergence, oat, wild; settings: 10 days
Description: as §2, §3

soybean (Glycine max) [5] = experiment: Test A preemergence, soybean; settings: 0 to 100 scale, 10 days
Description: as §2, §3

[6] = tested on: foxtail, giant (giant foxtail, Setaria faberi); experiment: Test A postemergence, foxtail, giant; settings: 10 days
Description: as §2, §3

soybean (Glycine max) [7] = experiment: Test A postemergence, soybean; settings: 10 days
Description: as §2, §3

[8] = tested on: oat, wild (wild oat, Avena fatua); experiment: Test A preemergence, oat, wild; settings: 0 to 100 scale, 10 days
Description: as §2, §3

[9] = tested on: ryegrass, Italian (Italian ryegrass, Lolium multiflorum); experiment: Test A postemergence, ryegrass, Italian; settings: 10 days
Summary of the method: as §1

[10] = tested on: ryegrass, Italian (Italian ryegrass, Lolium multiflorum); experiment: Test A preemergence, ryegrass, Italian; settings: 0 to 100 scale, 10 days
Summary of the method: as §1

[11] = tested on: foxtail, giant (giant foxtail, Setaria faberi); experiment: Test A preemergence, foxtail, giant; settings: 0 to 100 scale, 10 days
Description: as §2, §3

[12] = tested on: ducksalad (Heteranthera limosa); experiment: Test B flooded paddy test, ducksalad; settings: 250 g ai/ha, Flood; visually evaluated after 10 to 14 days
Summary of the method: (§4)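 Compound is introduced straight into paddy water on flooded pots (3 cm) containing 2-leaf-stage plants. Controls are run alongside, and all plants are rated by eye on a 0–100 scale after 10 to 14 days under glass.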

rice (Oryza sativa) = experiment: Test B flooded paddy test, rice; settings: 250 g ai/ha, Flood; visually evaluated after 10 to 14 days
Summary of the method: as §4

[13] = tested on: sedge, umbrella (small-flower umbrella sedge, Cyperus difformis); experiment: Test B flooded paddy test, sedge, umbrella; settings: 250 g ai/ha, Flood; visually evaluated after 10 to 14 days
Summary of the method: as §4

[14] = tested on: ragweed (common ragweed, Ambrosia artemisiifolia); experiment: Test A preemergence, ragweed; settings: 0 to 100 scale, 10 days
Summary of the method: as §1

[15] = tested on: wheat (Triticum aestivum); experiment: Test A postemergence, wheat; settings: 10 days
Summary of the method: as §1

[16] = tested on: barnyardgrass (Echinochloa crus-galli); experiment: Test B flooded paddy test, barnyardgrass; settings: 250 g ai/ha, Flood; visually evaluated after 10 to 14 days
Summary of the method: as §4

[17] = tested on: palmer amaranth (pigweed, palmer, Amaranthus palmeri); experiment: Test A postemergence, palmer amaranth; settings: 10 days
Description: as §2, §3

[18] = tested on: ragweed (common ragweed, Ambrosia artemisiifolia); experiment: Test A postemergence, ragweed; settings: 10 days
Summary of the method: as §1

[19] = tested on: galium (catchweed bedstraw, Galium aparine); experiment: Test A postemergence, galium; settings: 10 days
Summary of the method: as §1

[20] = tested on: horseweed (Erigeron canadensis); experiment: Test A postemergence, horseweed; settings: 10 days
Description: as §2, §3

corn (Zea mays) [21] = experiment: Test A postemergence, corn; settings: 10 days
Summary of the method: as §1

[22] = tested on: wheat (Triticum aestivum); experiment: Test A preemergence, wheat; settings: 125 g ai/ha, 0 to 100 scale, 10 days
[23] = tested on: goosegrass (Eleusine indica); experiment: Test A preemergence, goosegrass; settings: 0 to 100 scale, 10 days
Description: as §2, §3

corn (Zea mays) [24] = experiment: Test A preemergence, corn; settings: 0 to 100 scale, 10 days
Description: as §2, §3

[25] = tested on: blackgrass (Alopecurus myosuroides); experiment: Test A preemergence, blackgrass; settings: 0 to 100 scale, 10 days
Description: as §2, §3

[26] = tested on: palmer amaranth (pigweed, palmer, Amaranthus palmeri); experiment: Test A preemergence, palmer amaranth; settings: 0 to 100 scale, 10 days
Description: as §2, §3

kochia (Bassia scoparia) [27] = experiment: Test A postemergence, kochia; settings: 10 days
Summary of the method: as §1

[28] = 31 g ai/ha, postemergence, 0 to 100 scale (0 no effect, 100 complete control)
[29] = Postemergence, 125 g ai/ha, 0 to 100 scale

Compound: Cc1ccc2cc3ccc(C)cc3c(-c3c(OCOC(=O)N(C)C)c(Cl)nn(C)c3=O)c2c1 [Compound 18]
- Plant response rating, Blackgrass [1, 28]: 0
- Plant response rating, Blackgrass [1, 29]: 0
- Plant response rating, Kochia (kochia (Bassia scoparia) [2]; 31 g ai/ha): 0
- Plant response rating, Kochia (kochia (Bassia scoparia) [2]; 125 g ai/ha): 0
- Plant response rating, Goosegrass [3, 28]: 0
- Plant response rating, Goosegrass [3, 29]: 0
- Plant response rating, Oat, Wild [4, 28]: 0
- Plant response rating, Oat, Wild [4, 29]: 0
- Plant response rating, Soybean (soybean (Glycine max) [5]; 31 g ai/ha): 0
- Plant response rating, Soybean (soybean (Glycine max) [5]; 125 g ai/ha): 0
- Plant response rating, Foxtail, Giant [6, 28]: 0
- Plant response rating, Foxtail, Giant [6, 29]: 0
- Plant response rating, Soybean (soybean (Glycine max) [7]; [28]): 0
- Plant response rating, Soybean (soybean (Glycine max) [7]; [29]): 20
- Plant response rating, Oat, Wild ([8]; 31 g ai/ha): 0
- Plant response rating, Oat, Wild ([8]; 125 g ai/ha): 0
- Plant response rating, Ryegrass, Italian [9, 28]: 0
- Plant response rating, Ryegrass, Italian [9, 29]: 0
- Plant response rating, Ryegrass, Italian ([10]; 31 g ai/ha): 0
- Plant response rating, Ryegrass, Italian ([10]; 125 g ai/ha): 0
- Plant response rating, Foxtail, Giant ([11]; 31 g ai/ha): 0
- Plant response rating, Foxtail, Giant ([11]; 125 g ai/ha): 0
- Plant response rating, Ducksalad (0 to 100 scale where 0 is no effect and 100 is complete control) [12]: 0
- Plant response rating, Rice (0 to 100 scale where 0 is no effect and 100 is complete control) (rice (Oryza sativa)): 0
- Plant response rating, Sedge, Umbrella (0 to 100 scale where 0 is no effect and 100 is complete control) [13]: 15
- Plant response rating, Ragweed ([14]; 31 g ai/ha): 0
- Plant response rating, Ragweed ([14]; 125 g ai/ha): 0
- Plant response rating, Wheat [15, 28]: 0
- Plant response rating, Wheat [15, 29]: 0
- Plant response rating, Barnyardgrass (0 to 100 scale where 0 is no effect and 100 is complete control) [16]: 0
- Plant response rating, Pigweed, Palmer [17, 28]: 30
- Plant response rating, Pigweed, Palmer [17, 29]: 50
- Plant response rating, Ragweed [18, 28]: 30
- Plant response rating, Ragweed [18, 29]: 100
- Plant response rating, Galium [19, 28]: 0
- Plant response rating, Galium [19, 29]: 30
- Plant response rating, Horseweed [20, 29]: 20
- Plant response rating, Corn (corn (Zea mays) [21]; [28]): 0
- Plant response rating, Corn (corn (Zea mays) [21]; [29]): 0
- Plant response rating, Wheat [22]: 0
- Plant response rating, Goosegrass ([23]; 31 g ai/ha): 0
- Plant response rating, Goosegrass ([23]; 125 g ai/ha): 0
- Plant response rating, Corn (corn (Zea mays) [24]; 31 g ai/ha): 0
- Plant response rating, Corn (corn (Zea mays) [24]; 125 g ai/ha): 0
- Plant response rating, Blackgrass ([25]; 31 g ai/ha): 0
- Plant response rating, Blackgrass ([25]; 125 g ai/ha): 0
- Plant response rating, Pigweed, Palmer ([26]; 31 g ai/ha): 0
- Plant response rating, Pigweed, Palmer ([26]; 125 g ai/ha): 40
- Plant response rating, Kochia (kochia (Bassia scoparia) [27]; [28]): 40
- Plant response rating, Kochia (kochia (Bassia scoparia) [27]; [29]): 70

Compound: Cc1ccc2cc3ccc(F)cc3c(-c3c(OCOC(=O)OC(C)C)c(C)nn(C)c3=O)c2c1 [Compound 17]
- Plant response rating, Blackgrass [1, 28]: 0
- Plant response rating, Blackgrass [1, 29]: 10
- Plant response rating, Kochia (kochia (Bassia scoparia) [2]; 31 g ai/ha): 90
- Plant response rating, Kochia (kochia (Bassia scoparia) [2]; 125 g ai/ha): 90
- Plant response rating, Goosegrass [3, 28]: 30
- Plant response rating, Goosegrass [3, 29]: 50
- Plant response rating, Oat, Wild [4, 28]: 10
- Plant response rating, Oat, Wild [4, 29]: 30
- Plant response rating, Soybean (soybean (Glycine max) [5]; 31 g ai/ha): 0
- Plant response rating, Soybean (soybean (Glycine max) [5]; 125 g ai/ha): 0
- Plant response rating, Foxtail, Giant [6, 28]: 100
- Plant response rating, Foxtail, Giant [6, 29]: 100
- Plant response rating, Soybean (soybean (Glycine max) [7]; [28]): 60
- Plant response rating, Soybean (soybean (Glycine max) [7]; [29]): 80
- Plant response rating, Oat, Wild ([8]; 31 g ai/ha): 0
- Plant response rating, Oat, Wild ([8]; 125 g ai/ha): 0
- Plant response rating, Ryegrass, Italian [9, 28]: 70
- Plant response rating, Ryegrass, Italian [9, 29]: 100
- Plant response rating, Ryegrass, Italian ([10]; 31 g ai/ha): 30
- Plant response rating, Ryegrass, Italian ([10]; 125 g ai/ha): 80
- Plant response rating, Foxtail, Giant ([11]; 31 g ai/ha): 100
- Plant response rating, Foxtail, Giant ([11]; 125 g ai/ha): 100
- Plant response rating, Ducksalad (0 to 100 scale where 0 is no effect and 100 is complete control) [12]: 85
- Plant response rating, Rice (0 to 100 scale where 0 is no effect and 100 is complete control) (rice (Oryza sativa)): 45
- Plant response rating, Sedge, Umbrella (0 to 100 scale where 0 is no effect and 100 is complete control) [13]: 85
- Plant response rating, Ragweed ([14]; 31 g ai/ha): 100
- Plant response rating, Ragweed ([14]; 125 g ai/ha): 100
- Plant response rating, Wheat [15, 28]: 0
- Plant response rating, Wheat [15, 29]: 0
- Plant response rating, Barnyardgrass (0 to 100 scale where 0 is no effect and 100 is complete control) [16]: 70
- Plant response rating, Pigweed, Palmer [17, 28]: 90
- Plant response rating, Pigweed, Palmer [17, 29]: 100
- Plant response rating, Ragweed [18, 28]: 100
- Plant response rating, Ragweed [18, 29]: 100
- Plant response rating, Galium [19, 28]: 100
- Plant response rating, Galium [19, 29]: 100
- Plant response rating, Horseweed [20, 28]: 100
- Plant response rating, Horseweed [20, 29]: 100
- Plant response rating, Corn (corn (Zea mays) [21]; [28]): 0
- Plant response rating, Corn (corn (Zea mays) [21]; [29]): 30
- Plant response rating, Wheat [22]: 0
- Plant response rating, Goosegrass ([23]; 31 g ai/ha): 50
- Plant response rating, Goosegrass ([23]; 125 g ai/ha): 60
- Plant response rating, Corn (corn (Zea mays) [24]; 31 g ai/ha): 0
- Plant response rating, Corn (corn (Zea mays) [24]; 125 g ai/ha): 30
- Plant response rating, Blackgrass ([25]; 31 g ai/ha): 0
- Plant response rating, Blackgrass ([25]; 125 g ai/ha): 20
- Plant response rating, Pigweed, Palmer ([26]; 31 g ai/ha): 100
- Plant response rating, Pigweed, Palmer ([26]; 125 g ai/ha): 100
- Plant response rating, Kochia (kochia (Bassia scoparia) [27]; [28]): 100
- Plant response rating, Kochia (kochia (Bassia scoparia) [27]; [29]): 100
